This assay has as its system type II diabetic patients. As to the kind of experiment: Concurrent oral administration with sulfonylurea to type II diabetic patients. It counts as in vivo, human. As to conditions: type II diabetic patients on sulfonylureas (glipizide, glyburide or glimepiride); 15 mg/day oral, concurrently with sulfonylurea, plural months.

With `CCCCCS(=O)(=O)NC(=O)c1ccc2nc(C)n(Cc3ccc(Cl)cc3Cl)c2c1` [(3), 1-(2,4-dichlorobenzyl)-2-methyl-N-(pentylsulfonyl)-1H-benzimidazole-6-carboxamide], the HbAlc decrease result is “not less than 1 % point”.

The values above are taken from patent publication US20050197376A1, “Concomitant drugs” (Fujisawa Pharmaceutical Co. Ltd., priority 2004, published 2005).
